In US8071810B2, “C5a receptor antagonists” (Jerini AG, priority 2005, dated 2011):

What follows are molecules tested against T1, human C5a receptor (CD88) (Homo sapiens, UniProt P21730) (assay: C5a induced enzyme (glucosaminidase) release assay in RBL cells expressing the human C5a receptor (Example 28)). Settings: IC50 for the inhibition of C5a induced enzyme release, RBL cells with human C5aR.
T1 construct: expressed in transfected cells; host or cells: rat basophilic leukemia (RBL) cells, stably transfected
T1 sequence (P21730 1-350): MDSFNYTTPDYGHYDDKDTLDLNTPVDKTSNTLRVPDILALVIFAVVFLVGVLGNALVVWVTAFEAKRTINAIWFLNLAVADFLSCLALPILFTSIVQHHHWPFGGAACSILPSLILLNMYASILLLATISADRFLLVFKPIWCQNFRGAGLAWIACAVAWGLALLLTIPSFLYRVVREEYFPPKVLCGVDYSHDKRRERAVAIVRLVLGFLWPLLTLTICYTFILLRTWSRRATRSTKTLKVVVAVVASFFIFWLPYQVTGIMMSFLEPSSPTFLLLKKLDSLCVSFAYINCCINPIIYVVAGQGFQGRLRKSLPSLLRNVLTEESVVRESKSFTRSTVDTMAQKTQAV
Format: cell-based
Method: Basophile leukemia cells from rats (RBL), which express the human C5a receptor (CD88), are cultivated in DMEM with 10% fetal calf serum, 100 U/ml penicillin, 100 μg/ml streptomycin and 2 mM glutamin (all constituents are from Biochrome, Berlin) at 37° C. and with 10% CO2 until a confluent layer is obtained. All following details refer to a tissue culture flask with 75 cm^2 surface. The used up medium is removed. The cells are washed with 10 ml PBS (Dulbecco's PBS, Biochrome) and then covered with 3 ml cell dissociation solution (CDS, Sigma). The cells are incubated for 1 minute at room temperature. Then the CDS is removed and the cells are incubated for further 10-15 minutes at 37° C. to detach the cells completely from the flask. 20 μl solution of the compound to be testet are used in the assay. […] The dilution series are prepared in ⅓ or ½ steps. […] The cells are counted and centrifuged (200 g, 10 min). The cell pellet is taken up with pre-heated HAG-CM, and the cell density is adjusted to 2×10^6 Zellen/ml. The cells are incubated for 5 minutes at 37° C. 2.7 μl of a cytochalasin B solution (1000 μg/ml in DMSO, Sigma) are added per ml cell suspension. The Zellen are incubated for another 3 min at 37° C. Then, 75 μl of the cell suspension are added to the 20 μl solution containing the compounds to be tested. […] The cells are again incubated for 10 minutes at 37° C. […] After this the plates are put on ice and centrifuged for 3 minutes at 1200×g and 4° C. […] The plate is incubated for 1 hour at 37° C. […] The IC50 value is determined by solving the four parameter equation y=((A−D)/(1+(x/C)^B))+D.
`COc1ccc2c(c1)C(C(=O)N(Cc1ccc(N(C)C)cc1)c1ccc(C(C)C)cc1)CCC2` (stereo not shown) [compound 12, 7-methoxy-1,2,3,4-tetrahydro-naphthalin-1-carbonsäure (4-dimethylamino-benzyl)-(4-isopropyl-phenyl)-amide, reference compound] was tested, and the IC50 was 89 nM.

Same assay, conditions: RBL cells with human C5aR; read-out: IC50 for the inhibition of C5a induced enzyme release
`CCc1c(N)cc(Cl)c(CC)c1NC(=O)N(c1ccc(C(C)C)cc1)[C@@H](C)c1ccc(F)cc1` [compound 81, (S)-3-(3-amino-5-chloro-2,6-diethyl-phenyl)-1-[1-(4-fluor-phenyl)-ethyl]-1-(4-isopropyl-phenyl)-urea] showed an IC50 of 38 nM.
For `CCc1c(N)cc(Cl)c(CC)c1NC(=O)N(c1ccc(OC)cc1F)[C@@H](C)c1ccc(Cl)cc1`, the IC50 was 31 nM.
In the case of `CCc1ccc(N(C(=O)Nc2c(CC)c(N)cc(Cl)c2CC)[C@@H](C)c2ccc(Cl)cc2)cc1F`, the IC50 is reported as 35 nM.

Same assay, conditions: inhibition of C5a induced enzyme release, RBL cells with human C5aR; read-out: Activity-range (antagonistic activity, IC50 enzyme release)
Work on `CCc1c(N)cc(Cl)c(CC)c1NC(=O)N(c1ccc(C(C)C)cc1)[C@H](C)c1ccc(C)cc1` [compound 57, (R)-3-(3-Amino-5-chloro-2,6-diethyl-phenyl)-1-(4-isopropyl-phenyl)-1-(1-p-tolyl-ethyl)-urea] yielded an IC50 of 200 to 5000 nM.
`CCc1ccc(N(Cc2ccc(F)cc2)C(=O)Nc2c(CC)c(N)cc(Cl)c2CC)cc1` [compound 96, 3-(3-amino-5-chloro-2,6-diethyl-phenyl)-1-(4-ethyl-phenyl)-1-(4-fluoro-benzyl)-urea] gave an IC50 of 60 to 200 nM.
`COc1ccc2c(c1)C(C(=O)N(Cc1ccc(N(C)C)cc1)c1ccc(C(C)C)cc1)CCC2` (stereo not shown) [compound 12, 7-methoxy-1,2,3,4-tetrahydro-naphthalin-1-carbonsäure (4-dimethylamino-benzyl)-(4-isopropyl-phenyl)-amide, reference compound] gave an IC50 of 60 to 200 nM.
For `CCc1c(N)cc(Cl)c(CC)c1NC(=O)N(Cc1ccc(Cl)cc1)c1ccc(NC(C)=O)cc1` [compound 140, N-{4-[3-(3-amino-5-chloro-2,6-diethyl-phenyl)-1-(4-chloro-benzyl)-ureido]-phenyl}-acetamide], the IC50 was 200 to 5000 nM.
Molecule `CCc1c(N)cc(Cl)c(CC)c1NC(=O)N(c1ccc(C(C)C)cc1)C1CCSc2ccccc21` (stereo not shown) [compound 101, 3-(3-amino-5-chloro-2,6-diethyl-phenyl)-1-(4-isopropyl-phenyl)-1-thiochroman-4-yl-urea] has an IC50 of 200 to 5000 nM.
Work on `CCc1c(N)cc(Cl)c(CC)c1NC(=O)N(Cc1ccc(Cl)cc1)c1ccc(OC(F)F)cc1` [compound 117, 3-(3-amino-5-chloro-2,6-diethyl-phenyl)-1-(4-chloro-benzyl)-1-(4-difluoromethoxy-phenyl)-urea] yielded an IC50 of 200 to 5000 nM.
Molecule `CCc1c(N)cc(Cl)c(CC)c1NC(=O)N(Cc1ccc2c(c1)CCO2)c1ccc(C(C)C)cc1` [compound 65, 3-(3-amino-5-chloro-2,6-diethyl-phenyl)-1-(2,3-dihydro-benzofuran-5-ylmethyl)-1-(4-isopropyl-phenyl)-urea] has an IC50 of 60 to 200 nM.
With `CCc1c(Cl)cc(NCC(=O)N(C)C)c(CC)c1NC(=O)N(Cc1ccc(OC)cc1)c1ccc(C(C)C)cc1` [compound 37, 2-{5-chloro-2,4-diethyl-3-[3-(4-isopropyl-phenyl)-3-(4-methoxy-benzyl)-ureido]-phenylamino}-N,N-dimethyl-acetamide] the IC50 was 200 to 5000 nM.
`CCc1ccc(N)c(CC)c1NC(=O)N(Cc1ccc(OC)cc1F)c1ccc(C(C)C)cc1` [compound 59, 3-(3-amino-2,6-diethyl-phenyl)-1-(2-fluoro-4-methoxy-benzyl)-1-(4-isopropyl-phenyl)-urea] showed an IC50 of 200 to 5000 nM.
`CCc1c(N)cc(Cl)c(CC)c1NC(=O)N(Cc1ccccc1)c1ccc(N(C)C)cc1` [compound 128, 3-(3-amino-5-chloro-2,6-diethyl-phenyl)-1-benzyl-1-(4-dimethylamino-phenyl)-urea] was tested, and the IC50 was 200 to 5000 nM.
Molecule `CCc1c(N)cc(Cl)c(CC)c1NC(=O)N(CC1CCCCC1)c1ccc(C(C)C)cc1` [compound 60, 3-(3-amino-5-chloro-2,6-diethyl-phenyl)-1-cyclohexylmethyl-1-(4-isopropyl-phenyl)-urea] has an IC50 of 200 to 5000 nM.
With `CCc1c(N)cc(Cl)c(CC)c1NC(=O)N(Cc1ccccc1OC)c1ccc(C(C)C)cc1` [compound 62, 3-(3-amino-5-chloro-2,6-diethyl-phenyl)-1-(4-isopropyl-phenyl)-1-(2-methoxy-benzyl)-urea] the IC50 was 200 to 5000 nM.
With `CCc1c(N)cc(Cl)c(CC)c1NC(=O)N(Cc1ccc(C)cc1)c1ccc(C(C)C)cc1` [compound 34, 3-(3-amino-5-chloro-2,6-diethyl-phenyl)-1-(4-isopropyl-phenyl)-1-(4-methyl-benzyl)-urea] the IC50 was 60 to 200 nM.
Work on `CCc1c(N)cc(Cl)c(CC)c1NC(=O)N(c1ccc(C(C)C)cc1)C1CCOc2ccccc21` (stereo not shown) [compound 89, 3-(3-amino-5-chloro-2,6-diethyl-phenyl)-1-chroman-4-yl-1-(4-isopropyl-phenyl)-urea] yielded an IC50 of 200 to 5000 nM.
Work on `CCc1c(N)cc(Cl)c(CC)c1NC(=O)N(Cc1ccc(Cl)cc1)c1ccc(OC)c2nc(C)c(C)nc12` [compound 130, 3-(3-amino-5-chloro-2,6-diethyl-phenyl)-1-(4-chloro-benzyl)-1-(8-methoxy-2,3-dimethyl-chinoxalin-5-yl)-urea] yielded an IC50 of 200 to 5000 nM.
`CCc1ccc(NCC(N)=O)c(CC)c1NC(=O)N(Cc1ccc(OC)cc1)c1ccc(C(C)C)cc1` [compound 29, 2-{2,4-diethyl-3-[3-(4-isopropyl-phenyl)-3-(4-methoxy-benzyl)-ureido]-phenylamino}-acetamide] gave an IC50 of 200 to 5000 nM.
`CCc1ccc(N)c(CC)c1NC(=O)N(Cc1ccc(Cl)cc1)c1ccc(NC)cc1` [compound 119, 3-(3-amino-2,6-diethyl-phenyl)-1-(4-chloro-benzyl)-1-(4-methylamino-phenyl)-urea] showed an IC50 of 60 to 200 nM.
With `CCc1ccc(N)c(CC)c1NC(=O)N(c1ccc(C(C)C)cc1)[C@H](C)c1ccc(OC)cc1` [compound 70, (R)-3-(3-amino-2,6-diethyl-phenyl)-1-(4-isopropyl-phenyl)-1-[1-(4-methoxy-phenyl)-ethyl]-urea] the IC50 was 200 to 5000 nM.
`CCc1c(Cl)cc(NCc2nccn2C)c(CC)c1NC(=O)N(Cc1ccc(OC)cc1)c1ccc(C(C)C)cc1` [compound 38, 3-{3-chloro-2,6-diethyl-5-[(1-methyl-1H-imidazol-2-ylmethyl)-amino]-phenyl}-1-(4-isopropyl-phenyl)-1-(4-methoxy-benzyl)-urea] showed an IC50 of 200 to 5000 nM.
With `CCc1c(N)cc(Cl)c(CC)c1NC(=O)N(Cc1ccc(C)nc1)c1ccc(C(C)C)cc1` [compound 76, 3-(3-amino-5-chloro-2,6-diethyl-phenyl)-1-(4-isopropyl-phenyl)-1-(6-methyl-pyridin-3-ylmethyl)-urea] the IC50 was 60 to 200 nM.
`CCc1ccc(N(Cc2ccc(OC)cc2)C(=O)Nc2c(CC)c(N)cc(Cl)c2CC)cc1` [compound 32, 3-(3-amino-5-chloro-2,6-diethyl-phenyl)-1-(4-ethyl-phenyl)-1-(4-methoxy-benzyl)-urea] showed an IC50 of 200 to 5000 nM.
With `CCc1c(N)cc(Cl)c(CC)c1NC(=O)N(c1ccc(C(C)C)cc1)[C@H]1CCCc2ccccc21` [compound 42, (S)-3-(3-amino-5-chloro-2,6-diethyl-phenyl)-1-(4-isopropyl-phenyl)-1-(1,2,3,4-tetrahydro-naphthaline-1-yl)-urea] the IC50 was 60 to 200 nM.
With `CCc1c(N)cc(Cl)c(CC)c1NC(=O)N(Cc1ccc(OC)cc1F)c1ccc(C(C)C)cc1` [compound 58, 3-(3-amino-5-chloro-2,6-diethyl-phenyl)-1-(2-fluoro-4-methoxy-benzyl)-1-(4-isopropyl-phenyl)-urea] the IC50 was 200 to 5000 nM.
In the case of `CCc1c(N)cc(Cl)c(CC)c1NC(=O)N(Cc1ccc(Cl)cc1)c1ccc(NC)c2ccccc12` [compound 139, 3-(3-amino-5-chloro-2,6-diethyl-phenyl)-1-(4-chloro-benzyl)-1-(4-methylamino-naphthalin-1-yl)-urea], the IC50 is reported as 200 to 5000 nM.
